In patent publication US20140155406A1, “4-IMIDAZOPYRIDAZIN-1-YL-BENZAMIDES AND 4-IMIDAZOTRIAZIN-1-YL-BENZAMIDES BTK INHIBITORS” (priority 2011, published 2014):

Columns and labels:
Type in all cases: biochemical
Lck enzyme = biological target: T1, Lck enzyme (Homo sapiens, UniProt P06239); experiment: Lck enzyme activity, IMAP fluorescence polarization assay; details: 60 min pre-incubation, 6 μM ATP (Km)
T1 construct: purchased Millipore 14-442
Protocol: Lck enzyme activity is measured using the IMAP (immobilized metal ion affinity-based fluorescence polarization) assay as outlined below.
Lck enzyme (Millipore catalog#14-442), is diluted to 0.4 U/mL in KR buffer (10 mM Tris-HCl, 10 mM MgCl2, 0.01% Tween-20, 0.05% NaN3, 1 mM DTT, 2 mM MnCl2, pH 7.2). Serial dilution log 10 from 2 mM to 63.2 nM of test compounds are made in 100% DMSO. The dilutions in DMSO are then diluted 50-fold in KR-buffer of which 5 μl is used in the assay, leading to a final compound concentration range in the assay from 10 μM to 0.316 nM. 5 μL/well of test compound in KR buffer (final DMSO concentration in the assay is 1%) is mixed with 5 μl/well of 0.4 U/mL Lck enzyme (final concentration in the assay is 0.1 U/mL). Test compounds and Lck enzyme are pre-incubated 60 minutes at room temperature, before adding 5 μL/well of 400 nM Fluorescin labeled substrate peptide (p34cdc2 substrate peptide, e.g. #R7157/#R7172, Molecular Devices) in KR-buffer. Final peptide substrate concentration in assay is 100 nM. The kinase assay is started by adding 5 μL/well of 24 μM ATP in KR-buffer (final ATP concentration is 6 μM ATP, Km ATP in Lck IMAP assay). Following incubation for 2 h at room temperature the enzyme reaction is stopped by adding 40 μL/well IMAP Progressive Binding Solution (according to suppliers (Molecular Devices) protocol using 75% 1× buffer A and 25% 1× buffer B with 1:600 Progressive Binding Solution). After 60 min incubation at room temperature in the dark the FP signal is read. Fluorescence at 535 nm is measured using parallel and perpendicular filters to determine differences in rotation due to binding of the phosphorylated substrate peptide to the beads. Values are calculated as percentage of the difference in readout (ΔmPi) of the controls with and without ATP. EC50 values are determined by curve fitting of the experimental results using Activity Base.

Src enzyme = biological target: T2, Src enzyme (Homo sapiens, UniProt P12931); experiment: Src enzyme activity, IMAP fluorescence polarization assay; details: 60 min pre-incubation, 4 μM ATP (Km)
T2 construct: purchased Millipore 14-326
Protocol: Src enzyme activity is measured using the IMAP (immobilized metal ion affinity-based fluorescence polarization) assay as outlined below.
Src enzyme (Millipore catalog#14-326), is diluted to 0.8 U/mL in KR buffer (10 mM Tris-HCl, 10 mM MgCl2, 0.01% Tween-20, 0.05% NaN3, 1 mM DTT, 2 mM MnCl2, pH 7.2).
Serial dilution log 10 from 2 mM to 63.2 nM of test compounds are made in 100% DMSO. The dilutions in DMSO are then diluted 50-fold in KR-buffer of which 5 μl is used in the assay, leading to a final compound concentration range in the assay from 10 μM to 0.316 nM. 5 μL/well of test compound in KR buffer (final DMSO concentration in the assay is 1%) is mixed with 5 μl/well of 0.8 U/mL Src enzyme (final concentration in the assay is 0.2 U/mL). Test compounds and Src enzyme are pre-incubated 60 minutes at room temperature, before adding 5 μL/well of 400 nM Fluorescin labeled substrate peptide (p34cdc2 substrate peptide, e.g. #R7157/#R7172, Molecular Devices) in KR-buffer. Final peptide substrate concentration in assay is 100 nM. The kinase assay is started by adding 5 μL/well of 16 μM ATP in KR-buffer (final ATP concentration is 4 μM ATP, Km ATP in Src IMAP assay). Following incubation for 2 h at room temperature the enzyme reaction is stopped by adding 40 μL/well IMAP Progressive Binding Solution (according to suppliers (Molecular Devices) protocol using 75% 1× buffer A and 25% 1× buffer B with 1:600 Progressive Binding Solution). After 60 min incubation at room temperature in the dark the FP signal is read. Fluorescence at 535 nm is measured using parallel and perpendicular filters to determine differences in rotation due to binding of the phosphorylated substrate peptide to the beads. Values are calculated as percentage of the difference in readout (ΔmPi) of the controls with and without ATP. EC50 values are determined by curve fitting of the experimental results using Activity Base.

FynT enzyme = biological target: T3, FynT enzyme (Homo sapiens, UniProt P06241); experiment: FynT enzyme activity, IMAP fluorescence polarization assay; details: 60 min pre-incubation, 0.2 μM ATP (Km)
T3 construct: purchased Biomol SE-287
Protocol: FynT enzyme activity is measured using the IMAP (immobilized metal ion affinity-based fluorescence polarization) assay as outlined below.
FynT enzyme (Biomol catalog# SE-287), is diluted to 0.5 μg/mL in KR buffer (10 mM Tris-HCl, 10 mM MgCl2, 0.01% Tween-20, 0.05% NaN3, 1 mM DTT, 2 mM MnCl2, pH 7.2). Serial dilution log 10 from 2 mM to 63.2 nM of test compounds are made in 100% DMSO. The dilutions in DMSO are then diluted 50-fold in KR-buffer of which 5 μl is used in the assay, leading to a final compound concentration range in the assay from 10 μM to 0.316 nM. 5 μL/well of test compound in KR buffer (final DMSO concentration in the assay is 1%) is mixed with 5 μl/well of 0.5 μg/mL FynT enzyme (final concentration in the assay is 125 ng/mL). Test compounds and FynT enzyme are pre-incubated 60 minutes at room temperature, before adding 5 μL/well of 400 nM Fluorescin labeled substrate peptide (p34cdc2 substrate peptide, e.g. #R7157/#R7172, Molecular Devices) in KR-buffer. Final peptide substrate concentration in assay is 100 nM. The kinase assay is started by adding 5 μL/well of 0.8 μM ATP in KR-buffer (final ATP concentration is 0.2 μM ATP, Km ATP in FynT IMAP assay). Following incubation for 2 h at room temperature the enzyme reaction is stopped by adding 40 μL/well IMAP Progressive Binding Solution (according to suppliers (Molecular Devices) protocol using 75% 1× buffer A and 25% 1× buffer B with 1:600 Progressive Binding Solution). After 60 min incubation at room temperature in the dark the FP signal is read. Fluorescence at 535 nm is measured using parallel and perpendicular filters to determine differences in rotation due to binding of the phosphorylated substrate peptide to the beads. Values are calculated as percentage of the difference in readout (ΔmPi) of the controls with and without ATP. EC50 values are determined by curve fitting of the experimental results using Activity Base.

Lyn enzyme = biological target: T4, Lyn enzyme (Homo sapiens, UniProt P07948); experiment: Lyn enzyme activity, IMAP fluorescence polarization assay; details: 60 min pre-incubation, 2 μM ATP (Km)
T4 construct: purchased Millipore 14-510
Protocol: Lyn enzyme activity is measured using the IMAP (immobilized metal ion affinity-based fluorescence polarization) assay as outlined below.
Lyn enzyme (Millipore catalog#14-510), is diluted to 250 mU/mL in KR buffer (10 mM Tris-HCl, 10 mM MgCl2, 0.01% Tween-20, 0.05% NaN3, 1 mM DTT, 2 mM MnCl2, pH 7.2). Serial dilution log 10 from 2 mM to 63.2 nM of test compounds are made in 100% DMSO. The dilutions in DMSO are then diluted 50-fold in KR-buffer of which 5 μl is used in the assay, leading to a final compound concentration range in the assay from 10 μM to 0.316 nM. 5 μL/well of test compound in KR buffer (final DMSO concentration in the assay is 1%) is mixed with 5 μl/well of 250 mU/mL Lyn enzyme (final concentration in the assay is 62.5 mU/mL). Test compounds and Lyn enzyme are pre-incubated 60 minutes at room temperature, before adding 5 μL/well of 400 nM Fluorescin labeled substrate peptide (Blk/Lyntide substrate, e.g. #R7188/#R7233, Molecular Devices) in KR-buffer. Final peptide substrate concentration in assay is 100 nM. The kinase assay is started by adding 5 μL/well of 8 μM ATP in KR-buffer (final ATP concentration is 2 μM ATP, Km ATP in Lyn IMAP assay). Following incubation for 2 h at room temperature the enzyme reaction is stopped by adding 40 μL/well IMAP Progressive Binding Solution (according to suppliers (Molecular Devices) protocol using 75% 1× buffer A and 25% 1× buffer B with 1:600 Progressive Binding Solution). After 60 min incubation at room temperature in the dark the FP signal is read. Fluorescence at 535 nm is measured using parallel and perpendicular filters to determine differences in rotation due to binding of the phosphorylated substrate peptide to the beads. Values are calculated as percentage of the difference in readout (ΔmPi) of the controls with and without ATP. EC50 values are determined by curve fitting of the experimental results using Activity Base.

Measured: EC50

T2 sequence (P12931 whole entry): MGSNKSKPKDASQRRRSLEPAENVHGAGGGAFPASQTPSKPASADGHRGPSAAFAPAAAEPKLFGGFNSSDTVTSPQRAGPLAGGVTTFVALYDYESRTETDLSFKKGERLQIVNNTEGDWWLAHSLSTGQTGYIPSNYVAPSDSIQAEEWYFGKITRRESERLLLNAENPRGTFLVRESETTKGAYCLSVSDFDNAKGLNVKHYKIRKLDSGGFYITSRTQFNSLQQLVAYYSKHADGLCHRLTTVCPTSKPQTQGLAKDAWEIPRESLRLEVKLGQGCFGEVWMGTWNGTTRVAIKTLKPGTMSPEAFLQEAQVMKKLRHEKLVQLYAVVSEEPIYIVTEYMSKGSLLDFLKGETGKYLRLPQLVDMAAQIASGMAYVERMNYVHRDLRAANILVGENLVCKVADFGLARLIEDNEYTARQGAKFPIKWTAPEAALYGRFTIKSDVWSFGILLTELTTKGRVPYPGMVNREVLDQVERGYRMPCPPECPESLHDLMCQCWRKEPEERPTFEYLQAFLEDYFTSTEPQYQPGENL
T1 sequence (P06239 whole entry): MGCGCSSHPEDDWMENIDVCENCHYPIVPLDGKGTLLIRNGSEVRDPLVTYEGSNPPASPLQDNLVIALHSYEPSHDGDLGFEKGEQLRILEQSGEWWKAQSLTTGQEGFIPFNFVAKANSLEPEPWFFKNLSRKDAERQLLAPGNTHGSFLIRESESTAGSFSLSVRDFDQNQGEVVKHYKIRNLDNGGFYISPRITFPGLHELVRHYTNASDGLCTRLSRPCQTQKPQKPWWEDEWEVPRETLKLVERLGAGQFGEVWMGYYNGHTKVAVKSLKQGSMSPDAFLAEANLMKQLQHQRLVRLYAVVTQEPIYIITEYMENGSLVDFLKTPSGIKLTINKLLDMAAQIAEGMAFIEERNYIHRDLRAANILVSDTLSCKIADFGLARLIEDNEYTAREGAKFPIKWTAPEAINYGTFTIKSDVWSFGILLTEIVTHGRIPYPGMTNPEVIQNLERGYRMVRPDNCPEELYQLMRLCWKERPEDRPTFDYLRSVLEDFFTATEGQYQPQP
T3 sequence (P06241 1-534 isoform P06241-2): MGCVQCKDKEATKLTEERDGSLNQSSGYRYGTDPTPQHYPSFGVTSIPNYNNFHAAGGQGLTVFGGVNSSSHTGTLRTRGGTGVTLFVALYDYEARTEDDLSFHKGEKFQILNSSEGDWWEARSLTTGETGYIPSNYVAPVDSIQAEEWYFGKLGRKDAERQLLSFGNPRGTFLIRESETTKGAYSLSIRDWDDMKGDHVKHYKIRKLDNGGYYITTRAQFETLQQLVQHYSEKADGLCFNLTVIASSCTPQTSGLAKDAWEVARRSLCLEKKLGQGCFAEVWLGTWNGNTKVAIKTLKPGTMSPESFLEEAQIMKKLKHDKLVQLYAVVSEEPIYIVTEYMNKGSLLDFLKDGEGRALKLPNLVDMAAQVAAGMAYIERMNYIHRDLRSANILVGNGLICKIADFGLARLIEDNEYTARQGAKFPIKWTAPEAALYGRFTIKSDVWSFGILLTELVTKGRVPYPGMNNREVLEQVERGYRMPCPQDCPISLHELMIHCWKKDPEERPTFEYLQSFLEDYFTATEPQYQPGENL
T4 sequence (P07948 whole entry): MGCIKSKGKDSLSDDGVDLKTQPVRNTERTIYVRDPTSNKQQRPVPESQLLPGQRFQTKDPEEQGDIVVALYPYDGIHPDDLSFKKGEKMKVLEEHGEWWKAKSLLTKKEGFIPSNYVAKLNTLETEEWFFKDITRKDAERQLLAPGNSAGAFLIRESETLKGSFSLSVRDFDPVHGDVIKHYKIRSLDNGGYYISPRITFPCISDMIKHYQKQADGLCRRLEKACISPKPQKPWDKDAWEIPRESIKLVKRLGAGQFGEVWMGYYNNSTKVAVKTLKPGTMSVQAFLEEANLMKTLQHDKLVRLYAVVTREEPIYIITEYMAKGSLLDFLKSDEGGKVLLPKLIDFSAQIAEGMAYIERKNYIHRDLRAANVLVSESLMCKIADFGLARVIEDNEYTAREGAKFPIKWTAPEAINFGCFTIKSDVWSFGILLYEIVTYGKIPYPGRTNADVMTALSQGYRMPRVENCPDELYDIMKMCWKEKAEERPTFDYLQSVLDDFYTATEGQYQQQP

CCCc1ccnc(NC(=O)c2ccc(-c3nc([C@@H]4CCCCN4C(=O)c4ccnc(Cl)n4)n4ccnc(C)c34)cc2)c1 [Example 5, (S)-4-(3-(1-(2-chloropyrimidine-4-carbonyl)piperidin-2-yl)-8-methylimidazo[1,5-a]pyrazin-1-yl)-N-(4-propylpyridin-2-yl)benzamide]
≥ 1000 nM: all assays above

C=CC(=O)N1CCC[C@H]1c1nc(-c2ccc(C(=O)Nc3cc(OC)ccn3)cc2)c2c(C)nccn12 [Example 12, (S)-4-(3-(1-acryloylpyrrolidin-2-yl)-8-methylimidazo[1,5-a]pyrazin-1-yl)-N-(4-methoxypyridin-2-yl)benzamide]
≥ 1000 nM: all assays above

CC#CC(=O)N1CCC[C@H]1c1nc(-c2ccc(C(=O)Nc3cc(OC)ccn3)cc2)c2c(C)nccn12 [Example 16, (S)-4-(3-(1-but-2-ynoylpyrrolidin-2-yl)-8-methylimidazo[1,5-a]pyrazin-1-yl)-N-(4-methoxypyridin-2-yl)benzamide]
≥ 1000 nM: all assays above

Cc1nccn2c([C@@H]3CCCN3C(=O)/C=C/CN(C)C)nc(-c3ccc(C(=O)Nc4ccccn4)cc3)c12 [Example 31, (S,E)-4-(3-(1-(4-(dimethylamino)but-2-enoyl)pyrrolidin-2-yl)-8-methylimidazo[1,5-a]pyrazin-1-yl)-N-(pyridin-2-yl)benzamide]
≥ 1000 nM: all assays above

CCCc1ccnc(NC(=O)c2ccc(-c3nc([C@@H]4CCCCN4C(=O)/C=C/COC)n4ccnc(C)c34)cc2)c1 [Example 34, (S,E)-4-(3-(1-(4-methoxybut-2-enoyl)piperidin-2-yl)-8-methylimidazo[1,5-a]pyrazin-1-yl)-N-(4-propylpyridin-2-yl)benzamide]
≥ 1000 nM: all assays above
